From patent publication US20250092043A1, “Kinase Inhibitors and Degraders” (Incyte Corporation, priority 2023, published 2025)

The compounds below were run against T1, JAK2 (Homo sapiens, UniProt O60674, V617F) (assay: Western blot quantitation of JAK2 degradation in SET2 cells). Conditions: 0.5 μM compound (cells marked **), 8 hours treatment, western blot densitometry vs. DMSO vehicle.
T1 construct: their effect on JAK2 protein degradation in SET2 cells; host or cells: SET2 cells (human essential thrombocythemia)
T1 sequence (O60674 whole entry V617F): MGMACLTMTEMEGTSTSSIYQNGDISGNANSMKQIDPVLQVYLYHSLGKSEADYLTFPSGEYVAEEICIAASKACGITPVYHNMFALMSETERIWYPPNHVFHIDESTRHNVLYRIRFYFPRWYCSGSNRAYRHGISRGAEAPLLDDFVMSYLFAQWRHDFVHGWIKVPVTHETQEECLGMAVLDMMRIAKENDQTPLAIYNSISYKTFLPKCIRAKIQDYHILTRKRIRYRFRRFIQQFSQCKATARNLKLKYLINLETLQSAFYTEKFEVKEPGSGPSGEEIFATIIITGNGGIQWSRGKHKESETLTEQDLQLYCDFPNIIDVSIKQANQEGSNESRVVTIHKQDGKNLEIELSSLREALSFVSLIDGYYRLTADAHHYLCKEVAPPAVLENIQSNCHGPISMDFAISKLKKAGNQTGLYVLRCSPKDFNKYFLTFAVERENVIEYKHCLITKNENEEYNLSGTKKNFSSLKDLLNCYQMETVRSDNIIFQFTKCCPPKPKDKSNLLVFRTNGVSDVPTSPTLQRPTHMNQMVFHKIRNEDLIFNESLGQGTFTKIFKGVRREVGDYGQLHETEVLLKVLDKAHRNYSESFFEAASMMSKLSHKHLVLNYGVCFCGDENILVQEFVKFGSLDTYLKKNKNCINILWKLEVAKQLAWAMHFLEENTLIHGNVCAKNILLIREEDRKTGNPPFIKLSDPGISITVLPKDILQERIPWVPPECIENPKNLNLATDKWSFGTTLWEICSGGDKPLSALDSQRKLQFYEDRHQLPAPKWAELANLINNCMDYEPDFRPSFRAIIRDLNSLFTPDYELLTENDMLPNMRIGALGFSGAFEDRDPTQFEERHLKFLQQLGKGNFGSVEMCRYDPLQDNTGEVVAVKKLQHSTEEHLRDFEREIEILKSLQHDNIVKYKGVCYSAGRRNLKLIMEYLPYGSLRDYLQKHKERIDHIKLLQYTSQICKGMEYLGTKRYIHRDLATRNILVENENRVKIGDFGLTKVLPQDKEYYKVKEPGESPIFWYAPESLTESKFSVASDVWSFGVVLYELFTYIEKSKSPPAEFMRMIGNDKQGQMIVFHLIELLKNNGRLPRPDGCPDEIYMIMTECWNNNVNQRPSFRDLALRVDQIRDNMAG
Format: cell-based
Protocol: Example E. Western Blot Analysis of JAK2 Dependent SET2 Cells Treated with Compounds of the Present Disclosure
SET2 cells (DSMZ, catalog number ACC 608) are isolated from a person with human essential thrombocythemia and carry the JAK2 V617F mutation.
SET2 cells were cultured in RPMI culture medium (Gibco, catalog number 11875085) supplemented with 1% penicillin-streptomycin-glutamine (Thermo Fisher Scientific, catalog number 10378016) and 20% fetal bovine serum (Gibco, catalog number 10438034). Cultured cells were maintained at 37° C., 5% CO2 in the incubator.
Approximately 1,000,000 cells/well were added in 6-well plate containing 1.5 ml culture media with specified concentrations of compounds of the present disclosure or DMSO control. Cells were treated with concentrations of 10 uM, 5 uM, 1 uM, and 0.5 uM. Proteasome inhibitor MG-132 (Cell signaling, catalog number 2194) was added at 20 uM to an additional 10 uM compound treatment. The treatment period was 8 hours. After 8 hours, cells were collected in 1.5 mL microcentrifuge tubes. Tubes were centrifuged at 1500 rpm for 5 min. Supernatant was aspirated and samples were washed with 1 mL of cold PBS. The samples were centrifuged again at 1500 rpm for 5 min, supernatant was aspirated. The sample pellets were lysed using 150 μL of 1× lysing buffer (Cell Signaling Technologies—catalog number 9803S) supplemented with 1× Halt™ Protease and Phosphatase Inhibitor Cocktail (Thermo Fisher Scientific—catalog number 78447). Using Pierce™ BCA Protein Assay Kit (Thermo Fisher Scientific—catalog number 23225), protein concentration of the samples were quantitated. After normalizing sample concentration to approximately 20 ug/well, samples were loaded onto 4-12% Tris-glycine gels. Gels were transferred to nitrocellulose membranes using iBlot 2 Dry Blotting System and iBlot™ 2 Transfer Stacks, nitrocellulose (Thermo Fisher Scientific—catalog number IB23001). Following transfer, membranes were blocked with StartingBlock (Thermo Fisher Scientific—catalog number 37543). After 1 hour of blocking membranes, they were probed for JAK2, pSTAT5, STAT5, CRBN, and GAPDH (Cell Signaling—catalog numbers 3230, 4322, 25656, 71810, and 5174 respectively).
Compounds of the present disclosure were screened at various concentrations to determine their effect on JAK2 protein degradation in SET2 cells, using methods as described above. DMSO was used as the vehicle control with no PROTAC® added. Co-administration of 20 μM of the proteasome inhibitor MG-132 with the PROTAC® compound at its highest concentration (i.e., 5 or 10 μM) tested was conducted to support the hypothesis that the degradation was driven by the ubiquitin-proteosome system (UPS). Degradation was evaluated by western blot densitometry quantitation using the FluorChem M instrument software to analyze the intensity of the JAK2 band signal at various concentrations of PROTAC® compound vs. the JAK2 band signal of the DMSO vehicle. It is noted that ˜82% of JAK2 exists as the V617F mutant, with the remaining 18% of JAK2 being WT. Therefore, if the V617F mutant JAK2 is selectively degraded over the WT, the maximum degradation is ˜80%. Degradation was graded as A: […]; B: ≥40% to <60% degradation; C: ≥20% to <40% degradation, D: <20% to ≥10%; E<10%. ** refers to degradation at 0.5 μM.

Compound | JAK2 % Degradation in SET2
COC(=O)N[C@@H]1CC[C@@H](n2c(=O)n(C)c3cnc4[nH]c(-c5ccc(C(=O)N6CCC(CN7CCN(c8ccc9c(c8)C(=O)N(C8CCC(=O)NC8=O)C9=O)CC7)CC6)c(F)c5)c(-c5ccc6c(cnn6C(C)C)c5)c4c32)C1 (stereo partly drawn) [Example 32, methyl ((1R,3R)-3-(7-(4-(4-((4-(2-(2,6-dioxopiperidin-3-yl)-1,3-dioxoisoindolin-5-yl)piperazin-1-yl)methyl)piperidine-1-carbonyl)-3-fluorophenyl)-8-(1-isopropyl-1H-indazol-5-yl)-3-methyl-2-oxo-3,6-dihydroimidazo[4,5-d]pyrrolo[2,3-b]pyridin-1(2H)-yl)cyclopentyl) carbamate] | B** (B: ≥40% to <60% degradation)
COC(=O)N[C@@H]1CC[C@@H](n2c(=O)n(C)c3cnc4[nH]c(-c5ccc(C(=O)N6CCC(CN7CCN(c8ccc9c(c8)C(=O)N(C8CCC(=O)NC8=O)C9=O)CC7)CC6)cc5)c(-c5ccc6c(cnn6C(C)C)c5)c4c32)C1 (stereo partly drawn) [Example 34, methyl ((1R,3R)-3-(7-(4-(4-((4-(2-(2,6-dioxopiperidin-3-yl)-1,3-dioxoisoindolin-5-yl)piperazin-1-yl)methyl)piperidine-1-carbonyl)phenyl)-8-(1-isopropyl-1H-indazol-5-yl)-3-methyl-2-oxo-3,6-dihydroimidazo[4,5-d]pyrrolo[2,3-b]pyridin-1(2H)-yl)cyclopentyl) carbamate] | A** (A: ≥600% degradation)

Same assay, conditions: 10 μM compound, 8 hours treatment, western blot densitometry vs. DMSO vehicle

Compound | JAK2 % Degradation in SET2
COC(=O)N[C@@H]1CC[C@@H](n2c(=O)n(C)c3cnc4[nH]c(-c5ccc(C(=O)N6CCC(CN7CCN(c8cccc9c8C(=O)N(C8CCC(=O)NC8=O)C9=O)CC7)CC6)c(F)c5)c(-c5ccc6c(cnn6C(C)C)c5)c4c32)C1 (stereo partly drawn) [Example 1, Methyl((1R,3R)-3-(7-(4-(4-((4-(2-(2,6-dioxopiperidin-3-yl)-1,3-dioxoisoindolin-4-yl)piperazin-1-yl)methyl)piperidine-1-carbonyl)-3-fluorophenyl)-8-(1-isopropyl-1H-indazol-5-yl)-3-methyl-2-oxo-3,6-dihydroimidazo[4,5-d]pyrrolo[2,3-b]pyridin-1(2H)-yl)cyclopentyl)carbamate] | A (A: ≥600% degradation)
COC(=O)N[C@@H]1CC[C@@H](n2c(=O)n(C)c3cnc4[nH]c(-c5ccc(C(=O)NCCOCCOCC(=O)N[C@H](C(=O)N6C[C@H](O)C[C@H]6C(=O)NCc6ccc(-c7scnc7C)cc6)C(C)(C)C)c(F)c5)c(-c5ccc6c(cnn6C(C)C)c5)c4c32)C1 [Example 14, methyl ((1R,3R)-3-(7-(3-fluoro-4-((2-(2-(2-(((S)-1-((2S,4R)-4-hydroxy-2-((4-(4-methylthiazol-5-yl)benzyl)carbamoyl)pyrrolidin-1-yl)-3,3-dimethyl-1-oxobutan-2-yl)amino)-2-oxoethoxy)ethoxy)ethyl)carbamoyl)phenyl)-8-(1-isopropyl-1H-indazol-5-yl)-3-methyl-2-oxo-3,6-dihydroimidazo[4,5-d]pyrrolo[2,3-b]pyridin-1(2H)-yl)cyclopentyl) carbamate] | C (C: ≥20% to <40% degradation)
COC(=O)N[C@@H]1CC[C@@H](n2c(=O)n(C)c3cnc4[nH]c(-c5ccc(C(=O)NCCOCC(=O)Nc6ccc7c(c6)CN(C6CCC(=O)NC6=O)C7=O)c(F)c5)c(-c5ccc6c(cnn6C(C)C)c5)c4c32)C1 (stereo partly drawn) [Example 17, methyl ((1R,3R)-3-(7-(4-((2-(2-((2-(2,6-dioxopiperidin-3-yl)-1-oxoisoindolin-5-yl)amino)-2-oxoethoxy)ethyl)carbamoyl)-3-fluorophenyl)-8-(1-isopropyl-1H-indazol-5-yl)-3-methyl-2-oxo-3,6-dihydroimidazo[4,5-d]pyrrolo[2,3-b]pyridin-1(2H)-yl)cyclopentyl) carbamate] | E (E<10%)
COC(=O)N[C@@H]1CC[C@@H](n2c(=O)n(C)c3cnc4[nH]c(-c5ccc(C(=O)NCCOCC(=O)Nc6cccc7c6CN(C6CCC(=O)NC6=O)C7=O)c(F)c5)c(-c5ccc6c(cnn6C(C)C)c5)c4c32)C1 (stereo partly drawn) [Example 24, methyl ((1R,3R)-3-(7-(4-((2-(2-((2-(2,6-dioxopiperidin-3-yl)-1-oxoisoindolin-4-yl)amino)-2-oxoethoxy)ethyl)carbamoyl)-3-fluorophenyl)-8-(1-isopropyl-1H-indazol-5-yl)-3-methyl-2-oxo-3,6-dihydroimidazo[4,5-d]pyrrolo[2,3-b]pyridin-1(2H)-yl)cyclopentyl) carbamate] | C (C: ≥20% to <40% degradation)
COC(=O)N[C@@H]1CC[C@@H](n2c(=O)n(C)c3cnc4[nH]c(-c5ccc(C(=O)N(C)CCOCC(=O)Nc6ccc7c(c6)CN(C6CCC(=O)NC6=O)C7=O)c(F)c5)c(-c5ccc6c(cnn6C(C)C)c5)c4c32)C1 (stereo partly drawn) [Example 27, methyl ((1R,3R)-3-(7-(4-((2-(2-((2-(2,6-dioxopiperidin-3-yl)-1-oxoisoindolin-5-yl)amino)-2-oxoethoxy)ethyl)(methyl)carbamoyl)-3-fluorophenyl)-8-(1-isopropyl-1H-indazol-5-yl)-3-methyl-2-oxo-3,6-dihydroimidazo[4,5-d]pyrrolo[2,3-b]pyridin-1(2H)-yl)cyclopentyl) carbamate] | D (D: <20% to ≥10%)
COC(=O)N[C@@H]1CC[C@@H](n2c(=O)n(C)c3cnc4[nH]c(-c5ccc(C(=O)N6CCC(CN7CCN(c8cccc9c8C(=O)N(C8CCC(=O)NC8=O)C9=O)CC7)CC6)c(OC)c5)c(-c5ccc6c(cnn6C(C)C)c5)c4c32)C1 (stereo partly drawn) [Example 28, methyl ((1R,3R)-3-(7-(4-(4-((4-(2-(2,6-dioxopiperidin-3-yl)-1,3-dioxoisoindolin-4-yl)piperazin-1-yl)methyl)piperidine-1-carbonyl)-3-methoxyphenyl)-8-(1-isopropyl-1H-indazol-5-yl)-3-methyl-2-oxo-3,6-dihydroimidazo[4,5-d]pyrrolo[2,3-b]pyridin-1(2H)-yl)cyclopentyl) carbamate] | B (B: ≥40% to <60% degradation)
CCNC(=O)[C@H](Cc1ccc(F)cc1)NC(=O)[C@@H]1CCCN1C(=O)[C@@H](NC(=O)[C@H](C)NCCOCCNC(=O)c1ccc(-c2[nH]c3ncc4c(c3c2-c2ccc3c(cnn3C(C)C)c2)n([C@@H]2CC[C@@H](NC(=O)OC)C2)c(=O)n4C)cc1F)C1CCCCC1 [Example 31, methyl ((1R,3R)-3-(7-(4-((2-(2-(((S)-1-(((S)-1-cyclohexyl-2-((S)-2-(((S)-1-(ethylamino)-3-(4-fluorophenyl)-1-oxopropan-2-yl)carbamoyl)pyrrolidin-1-yl)-2-oxoethyl)amino)-1-oxopropan-2-yl)amino)ethoxy)ethyl)carbamoyl)-3-fluorophenyl)-8-(1-isopropyl-1H-indazol-5-yl)-3-methyl-2-oxo-3,6-dihydroimidazo[4,5-d]pyrrolo[2,3-b]pyridin-1(2H)-yl)cyclopentyl) carbamate] | C (C: ≥20% to <40% degradation)
COC(=O)N[C@@H]1CC[C@@H](n2c(=O)n(C)c3cnc4[nH]c(-c5ccc(C(=O)N6CCC(CN7CCN(c8cccc9c8C(=O)N(C8CCC(=O)NC8=O)C9=O)CC7)CC6)cc5)c(-c5ccc6c(cnn6C(C)C)c5)c4c32)C1 (stereo partly drawn) [Example 33, methyl ((1R,3R)-3-(7-(4-(4-((4-(2-(2,6-dioxopiperidin-3-yl)-1,3-dioxoisoindolin-4-yl)piperazin-1-yl)methyl)piperidine-1-carbonyl)phenyl)-8-(1-isopropyl-1H-indazol-5-yl)-3-methyl-2-oxo-3,6-dihydroimidazo[4,5-d]pyrrolo[2,3-b]pyridin-1(2H)-yl)cyclopentyl) carbamate] | A (A: ≥600% degradation)
